Measured values reported in patent US9351974B2, “Substituted pteridinones for the treatment of cancer” (OSI Pharmaceuticals, LLC, priority 2011, dated 2016).

molecular target: T1, His-tagged full-length RSK2 (RPS6KA3) (Homo sapiens, UniProt P51812); assay: RSK2 Omnia Assay for compound IC50 determination; assay type: biochemical; details: ATP 15 μM, n=2, read-out: Mean RSK2 Biochem IC50
T1 construct: His-tagged full-length RSK2 (RPS6KA3, Invitrogen PV3323); His; purchased Invitrogen PV3323
Procedure, shortened: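 Continuous fluorescence assay (ex 360/em 485 nm) of SOX-peptide (Omnia ST Peptide 6, 5 μM) phosphorylation with ATP 15 μM (Km 16.3 μM). Enzyme was […], in pH 7.5 HEPES/MgCl2 buffer with 1% DMSO. IC50 came from 11-point threefold dilutions ([…]) by four-parameter fit of initial slopes, in duplicate; Ki by Cheng-Prusoff assuming competitive inhibition.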

T1 sequence (P51812 whole entry): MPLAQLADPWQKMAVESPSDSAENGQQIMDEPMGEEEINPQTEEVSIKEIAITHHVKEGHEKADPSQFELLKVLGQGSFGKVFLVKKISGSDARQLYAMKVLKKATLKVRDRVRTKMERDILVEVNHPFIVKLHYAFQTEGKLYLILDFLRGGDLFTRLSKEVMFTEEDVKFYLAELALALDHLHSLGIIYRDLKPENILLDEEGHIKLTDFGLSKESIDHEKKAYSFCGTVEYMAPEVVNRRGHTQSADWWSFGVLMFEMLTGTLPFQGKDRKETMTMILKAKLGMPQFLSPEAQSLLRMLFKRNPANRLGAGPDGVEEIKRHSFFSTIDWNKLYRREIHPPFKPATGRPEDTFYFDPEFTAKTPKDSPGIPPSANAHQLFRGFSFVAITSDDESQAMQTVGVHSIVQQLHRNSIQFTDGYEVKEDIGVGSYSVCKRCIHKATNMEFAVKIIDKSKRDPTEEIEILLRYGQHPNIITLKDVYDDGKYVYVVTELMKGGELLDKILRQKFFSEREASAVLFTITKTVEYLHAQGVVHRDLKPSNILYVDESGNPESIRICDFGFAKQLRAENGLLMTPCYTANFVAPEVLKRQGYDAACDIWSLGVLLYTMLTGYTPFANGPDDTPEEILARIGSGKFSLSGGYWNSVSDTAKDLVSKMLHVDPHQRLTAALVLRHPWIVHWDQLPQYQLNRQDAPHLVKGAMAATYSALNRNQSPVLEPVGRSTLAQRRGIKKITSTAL

| Compound | IC50 [nM] |
| --- | --- |
| CC(C)CCN1c2nc(Nc3ccc4c(c3)CC(=O)N4)ncc2N(c2ccccc2)C(=O)C1C (stereo not shown) [Example 3, 7-methyl-8-(3-methylbutyl)-2-[(2-oxo-2,3-dihydro-1H-indol-5-yl)amino]-5-phenyl-7,8-dihydropteridin-6(5H)-one] | ≤ 100 |
| CNS(=O)(=O)Cc1ccc(Nc2ncc3c(n2)N(CCC(C)C)C(C)C(=O)N3c2ccccc2)cc1 (stereo not shown) [Example 7, N-methyl-1-(4-{[7-methyl-8-(3-methylbutyl)-6-oxo-5-phenyl-5,6,7,8-tetrahydropteridin-2-yl]amino}phenyl)methanesulfonamide] | > 1000 |
| COc1cc(Nc2ncc3c(n2)N(C2CCCCC2)[C@H](C)C(=O)N3c2cccc(C#N)c2)cc2cn[nH]c12 [compound 123, 3-[(7R)-8-cyclohexyl-2-[(7-methoxy-1H-indazol-5-yl)amino]-7-methyl-6-oxo-7,8-dihydropteridin-5(6H)-yl]benzonitrile] | 100 to 1000 |
| C[C@@H]1C(=O)N(c2ccc(N3CCN(C)CC3)c(C#N)c2)c2cnc(Nc3cc(F)c4[nH]ncc4c3)nc2N1C1CCCCC1 [compound 173, 5-[(7R)-8-cyclohexyl-2-[(7-fluoro-1H-indazol-5-yl)amino]-7-methyl-6-oxo-7,8-dihydropteridin-5(6H)-yl]-2-(4-methylpiperazin-1-yl)benzonitrile] | ≤ 100 |
| C[C@@H]1C(=O)N(c2cccc(C#N)c2)c2cnc(Nc3ccc4[nH]ncc4c3)nc2N1CC1CCCC1 [Example 81, 3-[(7R)-8-(cyclopentylmethyl)-2-(1H-indazol-5-ylamino)-7-methyl-6-oxo-7,8-dihydropteridin-5(6H)-yl]benzonitrile] | ≤ 100 |
| N#Cc1cccc(N2C(=O)[C@@H](CO)N(C3CCCC3)c3nc(Nc4cc(F)c5[nH]ncc5c4)ncc32)c1 [Example 218, 3-[(7R)-8-cyclopentyl-2-[(7-fluoro-1H-indazol-5-yl)amino]-7-(hydroxymethyl)-6-oxo-7,8-dihydropteridin-5(6H)-yl]benzonitrile] | ≤ 100 |
| C[C@@H]1C(=O)N(c2ccccc2)c2cnc(Nc3ccc4[nH]ncc4c3)nc2N1CC1CCCC1 [Example 75, (7R)-8-(cyclopentylmethyl)-2-(1H-indazol-5-ylamino)-7-methyl-5-phenyl-7,8-dihydropteridin-6(5H)-one] | ≤ 100 |
| C[C@@H]1C(=O)N(c2cnn(C)c2)c2cnc(Nc3ccc4[nH]ncc4c3)nc2N1C1CCCCC1 [Example 58, (7R)-8-cyclohexyl-2-(1H-indazol-5-ylamino)-7-methyl-5-(1-methyl-1H-pyrazol-4-yl)-7,8-dihydropteridin-6(5H)-one] | ≤ 100 |
| C[C@@H]1C(=O)N(c2ccc(C(=O)O)cc2)c2cnc(Nc3ccc4[nH]ncc4c3)nc2N1C1CCCCC1 [Example 63, 4-[(7R)-8-cyclohexyl-2-(1 H-indazol-5-ylamino)-7-methyl-6-oxo-7,8-dihydropteridin-5(6H)-yl]benzoic acid] | ≤ 100 |
| CC(C)CCN1c2nc(Nc3cc(F)c(O)c(F)c3)ncc2N(c2ccccc2)C(=O)C1C (stereo not shown) [Example 2, 2-[(3,5-difluoro-4-hydroxyphenyl)amino]-7-methyl-8-(3-methylbutyl)-5-phenyl-7,8-dihydropteridin-6(5H)-one] | ≤ 100 |
| COc1ccc(N2C(=O)[C@@H](C)N(C3CCCCC3)c3nc(NCc4ccncc4)ncc32)cc1OC [compound 162] | > 1000 |
| C[C@@H]1C(=O)N(c2cccc(C#N)c2)c2cnc(Nc3ccc4c(c3)CS(=O)(=O)N4)nc2N1C1CCCCC1 [compound 174, 3-[(7R)-8-cyclohexyl-2-[(2,2-dioxido-1,3-dihydro-2,1-benzothiazol-5-yl)amino]-7-methyl-6-oxo-7,8-dihydropteridin-5(6H)-yl]benzonitrile] | ≤ 100 |
| COc1ccc(N2C(=O)[C@@H](C)N(C3CCC(F)(F)CC3)c3nc(Nc4cc(F)c5[nH]c(=O)oc5c4)ncc32)cc1C#N [compound 281, 5-[(7R)-8-(4,4-difluorocyclohexyl)-2-[(4-fluoro-2-oxo-2,3-dihydro-1,3-benzoxazol-6-yl)amino]-7-methyl-6-oxo-7,8-dihydropteridin-5(6H)-yl]-2-methoxybenzonitrile] | ≤ 100 |
| CC(C)Oc1ccc(N2C(=O)[C@@H](C)N(C3CCC(F)(F)CC3)c3nc(Nc4cc(F)c5[nH]c(=O)oc5c4)ncc32)cc1C#N [compound 278, 5-[(7R)-8-(4,4-difluorocyclohexyl)-2-[(4-fluoro-2-oxo-2,3-dihydro-1,3-benzoxazol-6-yl)amino]-7-methyl-6-oxo-7,8-dihydropteridin-5(6H)-yl]-2-(propan-2-yloxy)benzonitrile] | ≤ 100 |
| C[C@@H]1C(=O)N(c2cccnc2)c2cnc(Nc3cc(F)c4[nH]ncc4c3)nc2N1[C@H]1CC[C@H](C(F)(F)F)CC1 [compound 256] | ≤ 100 |
| C[C@@H]1C(=O)N(c2cccc(C#N)c2)c2cnc(Nc3cc(F)c4[nH]ncc4c3)nc2N1c1ccc(F)cc1 [compound 180] | ≤ 100 |

| Compound | IC50 [nM] |
| --- | --- |
| COc1ccc(N2C(=O)[C@@H](C)N(C3CCOCC3)c3nc(Nc4cc(F)c5[nH]ncc5c4)ncc32)cc1C#N [compound 190, 5-[(7R)-2-[(7-fluoro-1H-indazol-5-yl)amino]-7-methyl-6-oxo-8-(tetrahydro-2H-pyran-4-yl)-7,8-dihydropteridin-5(6H)-yl]-2-methoxybenzonitrile] | ≤ 100 |
| C[C@@H]1C(=O)N(c2ccc(N3CCN(C)CC3)nc2)c2cnc(Nc3cc(F)c4[nH]ncc4c3)nc2N1C1CCCCC1 [compound 139, (7R)-8-cyclohexyl-2-[(7-fluoro-1H-indazol-5-yl)amino]-7-methyl-5-[6-(4-methylpiperazin-1-yl)pyridin-3-yl]-7,8-dihydropteridin-6(5H)-one] | ≤ 100 |
| C[C@@H]1C(=O)N(c2cccc(C#N)c2)c2cnc(Nc3ccc4[nH]ncc4c3)nc2N1CC1CC(F)(F)C1 [Example 83, 3-[(7R)-8-[(3,3-difluorocyclobutyl)methyl]-2-(1H-indazol-5-ylamino)-7-methyl-6-oxo-7,8-dihydropteridin-5(6H)-yl]benzonitrile] | ≤ 100 |
| COc1ccc(N2C(=O)[C@@H](C)N(C3CCC(F)(F)CC3)c3nc(Nc4ccc5[nH]c(=O)oc5c4)ncc32)cc1C#N [compound 283, 5-[(7R)-8-(4,4-difluorocyclohexyl)-7-methyl-6-oxo-2-[(2-oxo-2,3-dihydro-1,3-benzoxazol-6-yl)amino]-7,8-dihydropteridin-5(6H)-yl]-2-methoxybenzonitrile] | 100 to 1000 |
| C[C@@H]1C(=O)N(c2cccc(C#N)c2)c2cnc(Nc3cnc4[nH]ncc4c3)nc2N1C1CCCCC1 [compound 152, 3-[(7R)-8-cyclohexyl-7-methyl-6-oxo-2-(1H-pyrazolo[3,4-b]pyridin-5-ylamino)-7,8-dihydropteridin-5(6H)-yl]benzonitrile] | ≤ 100 |
| COc1ccc(N2C(=O)[C@@H](C)N(C3CCCCC3)c3nc(Nc4ccc5[nH]ncc5c4)ncc32)cc1C#N [compound 104, 5-[(7R)-8-cyclohexyl-2-(1H-indazol-5-ylamino)-7-methyl-6-oxo-7,8-dihydropteridin-5(6H)-yl]-2-methoxybenzonitrile] | ≤ 100 |
| COc1cc(N2C(=O)[C@@H](C)N(C3CCCCC3)c3nc(Nc4ccc5[nH]ncc5c4)ncc32)cc(OC)c1OC [Example 38, (7R)-8-cyclohexyl-2-(1H-indazol-5-ylamino)-7-methyl-5-(3,4,5-trimethoxyphenyl)-7,8-dihydropteridin-6(5H)-one] | ≤ 100 |
| Cc1c(Nc2ncc3c(n2)N(C2CCCCC2)[C@H](C)C(=O)N3c2cccc(C#N)c2)ccc2[nH]ncc12 [compound 117, 3-[(7R)-8-cyclohexyl-7-methyl-2-[(4-methyl-1H-indazol-5-yl)amino]-6-oxo-7,8-dihydropteridin-5(6H)-yl]benzonitrile] | 100 to 1000 |
| C[C@@H]1C(=O)N(c2cccc(C#N)c2)c2cnc(Nc3ccc4[nH]ncc4c3)nc2N1C1CCC(F)(F)CC1 [compound 261, 3-[(7R)-8-(4,4-difluorocyclohexyl)-2-(1H-indazol-5-ylamino)-7-methyl-6-oxo-7,8-dihydropteridin-5(6H)-yl]benzonitrile] | ≤ 100 |
| C[C@@H]1C(=O)N(c2cccc(C#N)c2)c2cnc(Nc3ccc4[nH]ncc4c3F)nc2N1C1CCCCC1 [compound 100, 3-[(7R)-8-cyclohexyl-2-[(4-fluoro-1H-indazol-5-yl)amino]-7-methyl-6-oxo-7,8-dihydropteridin-5(6H)-yl]benzonitrile] | ≤ 100 |
| C[C@@H]1C(=O)N(c2cccc(C(F)(F)F)c2)c2cnc(Nc3ccc4[nH]ncc4c3)nc2N1C1CCCCC1 [Example 36, (7R)-8-cyclohexyl-2-(1H-indazol-5-ylamino)-7-methyl-5-[3-(trifluoromethyl)phenyl]-7,8-dihydropteridin-6(5H)-one] | ≤ 100 |
| COc1ccc(N2C(=O)[C@@H](C)N(C3CCCCC3)c3nc(NCCc4cn[nH]c4)ncc32)cc1OC [compound 170] | > 1000 |
| C[C@@H]1C(=O)N(c2cccc(C#N)c2)c2cnc(Nc3ccc(C(N)=O)c(F)c3)nc2N1C1CCC(F)(F)CC1 [compound 272, 4-{[(7R)-5-(3-cyanophenyl)-8-(4,4-difluorocyclohexyl)-7-methyl-6-oxo-5,6,7,8-tetrahydropteridin-2-yl]amino}-2-fluorobenzamide] | ≤ 100 |
| C[C@H]1C(=O)N(c2ccccc2)c2cnc(Nc3ccc4[nH]ncc4c3)nc2N1C1CCCC1 [Example 67, (7S)-8-cyclopentyl-2-(1H-indazol-5-ylamino)-7-methyl-5-phenyl-7,8-dihydropteridin-6(5H)-one] | 100 to 1000 |
| CC(C)CCn1c(=O)c(=O)n(-c2ccccc2)c2cnc(Nc3ccc4c(c3)CC(=O)N4)nc21 [Example 306, 8-(3-methylbutyl)-2-[(2-oxo-2,3-dihydro-1H-indol-5-yl)amino]-5-phenyl-5,8-dihydropteridine-6,7-dione] | > 1000 |
